Test results reported in the supplement of paper PMC5770543.
± gives the standard deviation.

How the values were obtained:
[1] = system: Plasmodium falciparum 3D7; test: EC50 growth inhibition (60 h, SYBR Green); conditions: stage: ring-stage start
[2] = system: Toxoplasma gondii RH tachyzoites; test: % growth inhibition vs DMSO (48 h luciferase); higher = more inhibition; conditions: 10 µM
[3] = system: Plasmodium falciparum 3D7; test: R50 (50% reduction of ring formation, egress/invasion); higher = less potent
Experimental: (§1)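 P. falciparum asexual blood stages. EC50: sorbitol-synchronized 3D7 rings were treated with 2-fold dilutions from 10 µM for 60 h, with parasitemia read by SYBR Green I fluorescence; EC50 listed as 10 means not determined and is left out. Stage transition screen: ~40-42 hpi schizonts were treated at 1, 3 and 10 µM; new rings were counted by Hoechst flow cytometry and % inhibition is relative to DMSO controls (mean of 3 experiments). R50: concentration giving 50% reduction of new ring formation versus DMSO in 3D7, K1 and KH004-003, from flow cytometry after 12-20 h treatment of schizonts.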

[4] = system: Plasmodium falciparum K1 (chloroquine resistant); test: as above
Experimental: as §1

[5] = system: Plasmodium falciparum KH004-003 (artemisinin resistant); test: as above
Experimental: as §1

[6] = system: Plasmodium falciparum 3D7; test: % inhibition of schizont-to-ring transition vs DMSO; higher = more inhibition
In short: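 Schizont-to-ring transition inhibition is the formation of new rings relative to vehicle controls. Tightly synchronised P. falciparum schizonts at about 40–42 hours post-invasion (1% parasitemia, 2.5% hematocrit, AlbuMAX-supplemented RPMI) were treated with compound at 1, 3 or 10 µM, alongside vehicle and positive controls. After glutaraldehyde fixation, Triton permeabilisation and Hoechst 33342 staining, at least 100,000 events were counted by flow cytometry, and values are the mean of three experiments.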

[7] = system: Toxoplasma gondii RH tachyzoites; test: median egress time after A23187 ionophore; higher = stronger egress inhibition; conditions: 10 µM; pretreatment time: 24 h
Experimental: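 T. gondii RH tachyzoites expressing firefly luciferase were grown in HFF monolayers for 48 h with compound. % growth inhibition at 10 µM and EC50 (2-fold dilutions from 10 µM) were read by luminescence relative to 1% DMSO; EC50 listed as 10 (not determined, <80% inhibition) is left out. Plaque assays: 50 tachyzoites per well with 10 µM compound for 8-10 days, giving plaque count and area by crystal violet/ImageJ. Egress: median time to egress after 1 µM A23187 ionophore following 24 h of 10 µM compound (DMSO ~1.8 min; >10 = no egress within 10 min).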

[8] = system: Toxoplasma gondii RH tachyzoites; test: plaque count per well; higher = less inhibition; extreme values may be limits of the assay; conditions: 10 µM; 8-10 days
In short: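 Fifty T. gondii RH tachyzoites were added to each well of six-well plates holding confluent HFF monolayers preseeded with compound at 10 µM. Plates were left undisturbed for 8 to 10 days, then fixed with methanol and stained with crystal violet. Plaques were imaged and counted per well with ImageJ, with untreated and 1% DMSO-treated wells as controls. Plaque count per well reflects delayed-death inhibition of parasite growth.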

[9] = biological target: Toxoplasma gondii RH tachyzoites; test: EC50 growth inhibition (48 h luciferase)
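For % growth inhibition vs DMSO (48 h luciferase) in this document: tested in triplicate wells of 96-well plates on confluent HFF monolayers, with 1% DMSO wells as negative control in four replicates.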

CNCCCNc1ccnc2cc(Cl)ccc12
EC50 growth inhibition [1]: 25.8 nM
% growth inhibition [2]: 21.4 ± 19%
R50 [3]: 0.345 µM
R50 [4]: 4.11 µM
R50 [5]: 3.81 µM
% inhibition of schizont-to-ring transition ([6]; 1 µM): 61.4%
% inhibition of schizont-to-ring transition ([6]; 3 µM): 66.5%
% inhibition of schizont-to-ring transition ([6]; 10 µM): 71.6%
median egress time [7]: 2.4 min

O=C(NC1CCN(Cc2ccccc2)CC1)c1cc(-c2cccnc2)nc2ccc(Cl)cc12
EC50 growth inhibition [1]: 2560 nM
% growth inhibition [2]: 19.7 ± 17%
% inhibition of schizont-to-ring transition ([6]; 1 µM): 13.5%
% inhibition of schizont-to-ring transition ([6]; 3 µM): 17.4%
% inhibition of schizont-to-ring transition ([6]; 10 µM): 37.7%
median egress time [7]: 2.67 min
plaque count per well [8]: 34

COc1cccc(-c2nn(C)c3sc(C(=O)NCCN4CCN(c5ccccc5F)CC4)cc23)c1
EC50 growth inhibition [1]: 4200 nM
% growth inhibition [2]: 1.85 ± 3.2%
% inhibition of schizont-to-ring transition ([6]; 1 µM): 12.9%
% inhibition of schizont-to-ring transition ([6]; 3 µM): 36.3%
% inhibition of schizont-to-ring transition ([6]; 10 µM): 60.8%
median egress time [7]: 2.93 min
plaque count per well [8]: 31

COc1ccc(CCn2c(=N)c(C(=O)NCc3cccnc3)cc3c(=O)n4cccc(C)c4nc32)cc1
EC50 growth inhibition [1]: 353 nM
% growth inhibition [2]: 75.9 ± 1.6%
R50 [3]: 2.26 µM
R50 [4]: 2.1 µM
R50 [5]: 0.771 µM
% inhibition of schizont-to-ring transition ([6]; 1 µM): 40.3%
% inhibition of schizont-to-ring transition ([6]; 3 µM): 65.1%
% inhibition of schizont-to-ring transition ([6]; 10 µM): 66.9%
median egress time [7]: 2.13 min

COc1ccc(C2c3ccc4ccccc4c3Oc3ncn(CCCn4ccnc4)c(=N)c32)cc1OC (stereo not given)
EC50 growth inhibition [1]: 383 nM
% growth inhibition [2]: 65.4 ± 9%
R50 [3]: 2.5 µM
R50 [4]: 2.92 µM
R50 [5]: 2.4 µM
% inhibition of schizont-to-ring transition ([6]; 1 µM): 40%
% inhibition of schizont-to-ring transition ([6]; 3 µM): 73.6%
% inhibition of schizont-to-ring transition ([6]; 10 µM): 75.6%
median egress time [7]: 2.27 min

Cc1cc(C)c2c(c1)OCN(Cc1ccccc1Cl)C2
EC50 growth inhibition [1]: 3620 nM
% growth inhibition [2]: 4.95 ± 8.6%
% inhibition of schizont-to-ring transition ([6]; 1 µM): < 0%
% inhibition of schizont-to-ring transition ([6]; 3 µM): 17.9%
% inhibition of schizont-to-ring transition ([6]; 10 µM): 59.9%
median egress time [7]: 2 min
plaque count per well [8]: 27

Cn1c(C(=O)c2cccc3ccccc23)nc2ccccc21
EC50 growth inhibition [1]: 147 nM
% growth inhibition [2]: 9.52 ± 8.7%
% inhibition of schizont-to-ring transition ([6]; 1 µM): 53%
% inhibition of schizont-to-ring transition ([6]; 3 µM): 65.5%
% inhibition of schizont-to-ring transition ([6]; 10 µM): 70.2%
median egress time [7]: 2.4 min
plaque count per well [8]: 24

COc1ccc(NC(=O)C2c3ccccc3C(=O)N(CC(C)C)C2c2cccs2)cc1Cl (stereo not given)
EC50 growth inhibition [1]: 1040 nM
% growth inhibition [2]: < 0%
R50 [3]: 0.156 µM
R50 [4]: 0.183 µM
R50 [5]: 0.204 µM
% inhibition of schizont-to-ring transition ([6]; 1 µM): 75.7%
% inhibition of schizont-to-ring transition ([6]; 3 µM): 74.9%
% inhibition of schizont-to-ring transition ([6]; 10 µM): 78.9%
plaque count per well [8]: 28

COc1ccc2c(c1)C1(Nc3ccccc3-c3nc4ccccc4n31)C(=O)N2 (stereo not given)
EC50 growth inhibition [1]: 138 nM
% growth inhibition [2]: 47.3 ± 3.5%
R50 [3]: 0.892 µM
R50 [4]: 0.768 µM
R50 [5]: 0.922 µM
% inhibition of schizont-to-ring transition ([6]; 1 µM): 62%
% inhibition of schizont-to-ring transition ([6]; 3 µM): 64.1%
% inhibition of schizont-to-ring transition ([6]; 10 µM): 68.6%
median egress time [7]: 2.33 min

CC1(c2ccccc2)Nc2ccccc2-c2nc3ccccc3n21 (stereo not given)
EC50 growth inhibition [1]: 194 nM
% growth inhibition [2]: 24.3 ± 8%
R50 [3]: 0.768 µM
R50 [4]: 0.955 µM
R50 [5]: 0.275 µM
% inhibition of schizont-to-ring transition ([6]; 1 µM): 56.1%
% inhibition of schizont-to-ring transition ([6]; 3 µM): 77.5%
% inhibition of schizont-to-ring transition ([6]; 10 µM): 79%
median egress time [7]: 4.13 min

CCCCCCc1cc2cc(-c3csc(C=Cc4ccccc4)n3)c(=O)oc2cc1O
EC50 growth inhibition [1]: 8400 nM
% growth inhibition [2]: 8.97 ± 4.1%
% inhibition of schizont-to-ring transition ([6]; 1 µM): 9.04%
% inhibition of schizont-to-ring transition ([6]; 3 µM): 16%
% inhibition of schizont-to-ring transition ([6]; 10 µM): 39.7%
median egress time [7]: 1.94 min
plaque count per well [8]: 16

Cc1ccc(C)c(-c2csc(Nc3ccc(C)c(C)c3)n2)c1
% growth inhibition [2]: < 0%
% inhibition of schizont-to-ring transition ([6]; 1 µM): 13.5%
% inhibition of schizont-to-ring transition ([6]; 3 µM): 16%
% inhibition of schizont-to-ring transition ([6]; 10 µM): 20.4%
median egress time [7]: 3.2 min
plaque count per well [8]: 22

COc1ccc(C(=O)C(CCC(CNC(C)(C)C)C(=O)c2ccc(OC)cc2)CNC(C)(C)C)cc1 (stereo not given)
EC50 growth inhibition [9]: 1510 nM
EC50 growth inhibition [1]: 1450 nM
% growth inhibition [2]: 89.2 ± 2.7%
% inhibition of schizont-to-ring transition ([6]; 1 µM): < 0%
% inhibition of schizont-to-ring transition ([6]; 3 µM): 16.3%
% inhibition of schizont-to-ring transition ([6]; 10 µM): 66.1%
plaque count per well [8]: 0

CCOc1ccccc1CNC(=O)C1c2ccccc2C(=O)N(CC(C)C)C1c1cccs1 (stereo not given)
EC50 growth inhibition [1]: 649 nM
% growth inhibition [2]: 70.7 ± 11%
R50 [3]: 2.06 µM
R50 [4]: 2.11 µM
R50 [5]: 2.32 µM
% inhibition of schizont-to-ring transition ([6]; 1 µM): 38.3%
% inhibition of schizont-to-ring transition ([6]; 3 µM): 65.3%
% inhibition of schizont-to-ring transition ([6]; 10 µM): 74.8%

OC(CNC1CCCCC1)Cn1c2ccc(I)cc2c2cc(I)ccc21 (stereo not given)
EC50 growth inhibition [1]: 591 nM
% growth inhibition [2]: < 0%
% inhibition of schizont-to-ring transition ([6]; 1 µM): 39.7%
% inhibition of schizont-to-ring transition ([6]; 3 µM): 69%
% inhibition of schizont-to-ring transition ([6]; 10 µM): 73.8%
median egress time [7]: 1.33 min
plaque count per well [8]: 3

CCOc1cc2c(cc1OCC)C(c1cc(OC)c(O)cc1Cl)NCC2 (stereo not given)
EC50 growth inhibition [1]: 711 nM
% growth inhibition [2]: 37.4 ± 13%
R50 [3]: 2.71 µM
R50 [4]: 0.342 µM
R50 [5]: 1.32 µM
% inhibition of schizont-to-ring transition ([6]; 1 µM): 11.2%
% inhibition of schizont-to-ring transition ([6]; 3 µM): 60%
% inhibition of schizont-to-ring transition ([6]; 10 µM): 76.1%
median egress time [7]: 2.27 min

Oc1ccc(-c2nc(-c3ccc4oc5ccc(-c6[nH]c(-c7ccc(O)cc7)nc6-c6ccccc6)cc5c4c3)c(-c3ccccc3)[nH]2)cc1
EC50 growth inhibition [1]: 1890 nM
% growth inhibition [2]: < 0%
% inhibition of schizont-to-ring transition ([6]; 1 µM): 8.13%
% inhibition of schizont-to-ring transition ([6]; 3 µM): 15.7%
% inhibition of schizont-to-ring transition ([6]; 10 µM): 48.8%
median egress time [7]: 1.47 min
plaque count per well [8]: 11

Oc1ccccc1CN1CCC2(CCCN(Cc3ccccc3F)C2)C1 (stereo not given)
EC50 growth inhibition [1]: 1140 nM
% growth inhibition [2]: < 0%
% inhibition of schizont-to-ring transition ([6]; 1 µM): 31.4%
% inhibition of schizont-to-ring transition ([6]; 3 µM): 37.7%
% inhibition of schizont-to-ring transition ([6]; 10 µM): 60.6%
median egress time [7]: 2.13 min
plaque count per well [8]: 26

Oc1ccc(Br)cc1CN1CCN(Cc2cccc(F)c2)CC1
EC50 growth inhibition [1]: 787 nM
% growth inhibition [2]: 6.13 ± 7.3%
% inhibition of schizont-to-ring transition ([6]; 1 µM): 19%
% inhibition of schizont-to-ring transition ([6]; 3 µM): 40.9%
% inhibition of schizont-to-ring transition ([6]; 10 µM): 60.6%
median egress time [7]: 2.27 min
plaque count per well [8]: 21

COc1cccc(O)c1CN1CCC2(CCCN(Cc3ccc(F)cc3)C2)C1 (stereo not given)
EC50 growth inhibition [1]: 409 nM
% growth inhibition [2]: 79.6 ± 3.5%
R50 [3]: 1.91 µM
R50 [4]: 0.805 µM
R50 [5]: 1.23 µM
% inhibition of schizont-to-ring transition ([6]; 1 µM): 42.2%
% inhibition of schizont-to-ring transition ([6]; 3 µM): 68.4%
% inhibition of schizont-to-ring transition ([6]; 10 µM): 72.4%

COc1cc(-c2nc(-c3ccccc3)c(-c3ccccc3)[nH]2)cc(OC)c1O
EC50 growth inhibition [1]: 8620 nM
% growth inhibition [2]: 6.6 ± 11%
% inhibition of schizont-to-ring transition ([6]; 1 µM): 13.7%
% inhibition of schizont-to-ring transition ([6]; 3 µM): 15.2%
% inhibition of schizont-to-ring transition ([6]; 10 µM): 37.4%
median egress time [7]: 2.93 min
plaque count per well [8]: 22

COc1ccccc1C(=O)ON=C(N)Cc1cccc2ccccc12
EC50 growth inhibition [1]: 244 nM
% growth inhibition [2]: 73.6 ± 2.5%
R50 [3]: 3.9 µM
R50 [4]: 3.93 µM
R50 [5]: 1.25 µM
% inhibition of schizont-to-ring transition ([6]; 1 µM): 12%
% inhibition of schizont-to-ring transition ([6]; 3 µM): 43.7%
% inhibition of schizont-to-ring transition ([6]; 10 µM): 78.8%
